Assay results reported in US20040067915A1, “Method to treat cardiofibrosis with a combination of an angiotensin II antagonist and spironolactone” (G.D. Searle & Co., priority 1995, published 2004).
Read-outs that look alike come from different tables or passages of the source.

Assays:
[1] = biological target: angiotensin II AT1 receptor; assay: Assay A: Angiotensin II Binding Activity (125I-AII displacement, rat uterine membrane preparation)
Method: Assay A: Antiotensin II Binding Activity
Compounds of the invention were tested for ability to bind to the smooth muscle angiotensin II receptor using a rat uterine membrane preparation. […] Rat uterine membranes were prepared from fresh tissue. All procedures were carried out at 4° C. Uteri were stripped of fat and homogenized in phosphate-buffered saline at pH 7.4 containing 5 mM EDTA. The homogenate was centrifuged at 1500×g for 20 min., and the supernatant was recentrifuged at 100,000×g for 60 min. The pellet was resuspended in buffer consisting of 2 mM EDTA and 50 mM Tris-HCl (pH 7.5) to a final protein concentration of 4 mg/ml. […] The reaction was initiates by the addition of membrane protein and the mixture was incubated at 25° C. for 60 min. The incubation was terminated with ice-cold 50 mM Tris-HCl (pH 7.5) and the mixture was filtered to separate membrane-bound labelled peptide from the free ligand. The incubation tube and filter were washed with ice-cold buffer. Filters were assayed for radioactivity in a Micromedic gamma counter. Nonspecific binding was defined as binding in the presence of 10 μM of unlabelled AII. Specific binding was calculated as total binding minus nonspecific binding. […] Binding data were analyzed by a nonlinear least-squares curve fitting program.
1Assay A: Angiotensin II Binding Activity

pressor response to AII = assay: Assay C: In vivo Intragastric Pressor Assay Response for AII Antagonists; conditions: rat; for inhibition at 3 mg/kg: po, AII pressor response
Method: Assay C: In vivo Intragastric Pressor Assay Response for All Antagonists
Male Sprague-Dawley rats weighing 225-300 grams were anesthetized with methohexital (30 mg/kg, i.p.) and catheters were implanted into the femoral artery and vein. The catheters were tunneled subcutaneously to exit dorsally, posterior to the head and between the scapulae. The catheters were filled with heparin (1000 units/ml of saline). The rats were returned to their cage and allowed regular rat chow and water ad libitum. After full recovery from surgery (3-4 days), rats were placed in Lucite holders and the arterial line was connected to a pressure transducer. Arterial pressure was recorded on a Gould polygraph (mmHg). Angiotensin II was administered as a 30 ng/kg bolus via the venous catheter delivered in a 50 μl volume with a 0.2 ml saline flush. The pressor response in mm Hg was measured by the difference from pre-injection arterial pressure to the maximum pressure achieved. The AII injection was repeated every 10 minutes until three consecutive injections yielded responses within 4 mmHg of each other. These three responses were then averaged and represented the control response to AII. The test compound was suspended in 0.5% methylcellulose in water and was administered by gavage. The volume administered was 2 ml/kg body weight. The standard dose was 3 mg/kg. Angiotensin II bolus injections were given at 30, 45, 60, 75, 120, 150, and 180 minutes after gavage. The pressor response to AII was measured at each time point. The rats were then returned to their cage for future testing. A minimum of 3 days was allowed between tests. Percent inhibition was calculated for each time point following gavage by the following formula: [(Control Response—Response at time point)/Control Response]×100.
3Assay C: In vivo Pressor Response

angiotensin II = conditions: binding experiments, functional assays and in vivo tests; cited from earlier work
[2] = system: myocardial fibrosis in animal models; conditions: cited from earlier work
[3] = biological target: T1, angiotensin II receptor (rabbit aortic rings) (Oryctolagus cuniculus, UniProt P34976); assay: Assay B: In vitro Vascular Smooth Muscle Response for AII (rabbit aortic rings, pA2); type: cell-based; conditions: two determinations given as a/b
T1 construct: The thoracic aorta was removed, cleaned of adherent fat and connective tissue and then cut into 3-mm ring segments; from tissue; host or cells: rabbit thoracic aorta rings, endothelium removed
T1 sequence (P34976 1-359): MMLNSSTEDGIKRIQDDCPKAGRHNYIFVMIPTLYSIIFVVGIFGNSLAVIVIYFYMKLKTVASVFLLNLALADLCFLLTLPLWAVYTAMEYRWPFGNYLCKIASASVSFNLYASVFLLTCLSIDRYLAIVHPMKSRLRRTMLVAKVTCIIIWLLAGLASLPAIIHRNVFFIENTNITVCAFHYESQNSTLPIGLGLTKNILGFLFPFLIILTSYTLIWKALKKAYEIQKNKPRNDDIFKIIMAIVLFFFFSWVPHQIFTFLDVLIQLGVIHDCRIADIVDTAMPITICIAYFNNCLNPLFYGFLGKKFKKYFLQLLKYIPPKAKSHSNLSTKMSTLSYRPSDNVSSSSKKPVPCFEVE
Method: Assay B: In vitro Vascular Smooth Muscle-response for AII
The compounds of the invention were tested for antagonist activity in rabbit aortic rings. Male New Zealand white rabbits (2-2.5 kg) were sacrificed using an overdose of pentobarbital and exsanguinated via the carotid arteries. The thoracic aorta was removed, cleaned of adherent fat and connective tissue and then cut into 3-mm ring segments. The endothelium was removed from the rings by gently sliding a rolled-up piece of filter paper into the vessel lumen. The rings were then mounted in a water-jacketed tissue bath, maintained at 37° C., between moveable and fixed ends of a stainless steel wire with the moveable end attached to an FT03 Grass transducer coupled to a Model 7D Grass Polygraph for recording isometric force responses. […] The preparations were equilibrated for one hour before approximately one gram of passive tension was placed on the rings. Angiotensin II concentration-response curves were then recorded (3×10^−10 to 1×10^−5 M). Each concentration of AII was allowed to elicit its maximal contraction, and then AII was washed out repeatedly for 30 minutes before rechallenging with a higher concentration of AII. Aorta rings were exposed to the test antagonist at 10^−5 M for 5 minutes before challenging with AII. Adjacent segments of the same aorta ring were used for all concentration-response curves in the presence or absence of the test antagonist. The effectiveness of the test compound was expressed in terms of pA2 values and were calculated according to H. O. Schild [Br. J. Pharmacol. Chemother., 2, 189-206 (1947)]. The pA2 value is […] which increases the EC50 value for AII by a factor of two. Each test antagonist was evaluated in aorta rings from two rabbits.
2Assay B: In vitro Vascular Smooth Muscle Response

[4] = hypertensive patients, continued ACE inhibition; cited from earlier work

Work on `CCCCc1nc(Cl)n(Cc2ccc(-c3ccccc3C(=O)O)cc2)n1` [Compound 8] yielded an IC50 [1] of 17000 nM.
`CCCCc1nc(CC(CC)CC)n(Cc2ccc(-c3ccccc3-c3nnn[nH]3)nc2)n1` [Compound 250] gave an IC50 [1] of 43 nM and an inhibition at 3 mg/kg (pressor response to AII; dose 3 mg/kg) of 0%.
For `CCCCc1cn(CC2CCCCC2)c(=O)n1Cc1ccc(-c2ccccc2-c2nnn[nH]2)nc1` [Compound 205], the IC50 [1] was 20 nM, the “Assay C Duration” value (pressor response to AII; dose 3 mg/kg) was greater than 180 min and the inhibition at 3 mg/kg (pressor response to AII; dose 3 mg/kg) was 40%.
In the case of `CCCc1nc(CCC)n(Cc2ccc(-c3ccccc3-c3nnn[nH]3)cc2)n1` [Compound 15], the IC50 [1] is reported as 16 nM.
In the case of `CCCCc1nc(Cl)c(CC(=O)[O-])n1Cc1ccccc1Cl.[Na+]` [sodium salt of 2-n-butyl-4-chloro-1-(2-chlorobenzyl)imidazole-5-acetic acid], the “angiotensin II antagonist activity” value (angiotensin II) is listed as “specific competitive angiotensin II antagonist activity”.
For `CCCCc1nc(Cl)nn1Cc1ccc(-c2ccccc2C(=O)O)cc1` [Compound 6], the IC50 [1] was 1300 nM and the “Assay C Duration” value (pressor response to AII; dose 100 mg/kg) was 120 min.
For `CCCCc1nc(Cl)c(CC(=O)[O-])n1Cc1ccccc1[N+](=O)[O-].[Na+]` [sodium salt of 2-butyl-4-chloro-1-(2-nitrobenzyl)imidazole-5-acetic acid], the “angiotensin II antagonist activity” value (angiotensin II) is listed as “specific competitive angiotensin II antagonist activity”.
In the case of `CCCCc1nc(Cl)nn1Cc1ccc(-c2ccccc2-c2nnn[nH]2)cc1` [Compound 7], the IC50 [1] is reported as 84 nM and the “Assay C Duration” value (pressor response to AII; dose 30 mg/kg) is reported as 130 min.
`CCCCc1nc(CCC)nn1Cc1ccc(-c2ccccc2-c2nnn[nH]2)nc1` [Compound 246] showed an IC50 [1] of 72 nM.
For `CCCCc1nc(C(F)(F)CCC)nn1Cc1ccc(-c2ccccc2-c2nnn[nH]2)cc1` [Compound 10], the IC50 [1] was 4.9 nM, the “Assay C Duration” value (pressor response to AII; dose 3 mg/kg) was 100 min and the “Assay C Duration” value (pressor response to AII; dose 30 mg/kg) was 240 min.
In the case of `CCCCc1nc(CCCC)n(Cc2ccc(-c3ccccc3C(=O)NNS(=O)(=O)C(F)(F)F)cc2)n1` [Compound 5], the IC50 [1] is reported as 200 nM and the “Assay C Duration” value (pressor response to AII; dose 30 mg/kg) is reported as 20 to 30 min.
For `CCCCc1nc(Cl)n(Cc2ccc(-c3ccccc3-c3nnn[nH]3)cc2)n1` [Compound 9], the IC50 [1] was 700 nM, the “Assay C Duration” value (pressor response to AII; dose 30 mg/kg) was 75 min and the “Assay C Duration” value (pressor response to AII; dose 100 mg/kg) was 130 min.
For `CCCCc1nc(-c2ccccc2)nn1Cc1ccc(-c2ccccc2-c2nnn[nH]2)cc1` [Compound 21], the IC50 [1] was 7 nM.
In the case of `CC(=O)S[C@@H]1CC2=CC(=O)CC[C@]2(C)[C@H]2CC[C@@]3(C)[C@@H](CC[C@@]34CCC(=O)O4)[C@H]12` [spironolactone, 17-hydroxy-7α-mercapto-3-oxo-17α-pregn-4-ene-21-carboxylic acid γ-lactone acetate], the myocardial fibrosis [2] is listed as “prevents myocardial fibrosis in animal models” and the myocardial fibrosis ([2]; listed as Spironolactone) is listed as “prevent fibrosis in animal models irrespective of the development of left ventricular hypertrophy and the presence of hypertension”.
In the case of `CCCCc1nc2c(OC(C)=O)nnc(OC(C)=O)c2n1Cc1ccc(-c2ccccc2-c2nnn[nH]2)cc1` [Compound 125], the “Assay C Duration” value (pressor response to AII; dose 3 mg/kg) is reported as greater than 240 min and the inhibition at 3 mg/kg (pressor response to AII; dose 3 mg/kg) is reported as 35%.
Compound `CCCCc1cn(C2C3CC4CC(C3)CC2C4)c(=O)n1Cc1ccc(-c2ccccc2-c2nnn[nH]2)nc1` (stereo not shown) [Compound 213] has an IC50 [1] of 51 nM.
Work on `CCCc1nc(CCC(C)C)n(Cc2ccc(-c3ccccc3-c3nnn[nH]3)cc2)n1` [Compound 16] yielded an IC50 [1] of 6.4 nM.
For `CCCCc1nc(CCCC)n(Cc2ccc(-c3ccccc3-c3nnn[nH]3)cc2)n1` [Compound 3], the Kb [3] was 2 nM, the IC50 [1] was 5.4 nM and the “Assay C Duration” value (pressor response to AII; dose 10 mg/kg) was greater than 180 min. For the same compound, the “Assay C Duration” value (pressor response to AII; dose 30 mg/kg) was 200^+ min.
In the case of `C[C@H](CS)C(=O)N1CCC[C@H]1C(=O)O` [captopril], the plasma aldosterone [4] is given as “gradual return of plasma aldosterone to baseline levels”.
With `CCCCc1nc2cnncc2n1Cc1ccc(-c2ccccc2-c2nnn[nH]2)cc1` [Compound 115] the “Assay C Duration” value (pressor response to AII; dose 3 mg/kg) was greater than 240 min and the inhibition at 3 mg/kg (pressor response to AII; dose 3 mg/kg) was 40%.
Work on `CCCCc1nc(C(F)(F)CCC)n(Cc2ccc(-c3ccccc3-c3nnn[nH]3)cc2)n1` [Compound 11] yielded an IC50 [1] of 160 nM.
